According to patent US20250262201A1, “COMPOUNDS AND METHODS USEFUL FOR STABILIZING PHENYLALANINE HYDROXYLASE MUTATIONS” (Agios Pharmaceuticals, Inc., priority 2022, published 2025):

What follows are compounds tested against T1, human PAH with the R408W mutation (Homo sapiens, UniProt P00439, R408W) (assay: Cell Based Phenylalanine Flux Assay). Details: A375 cells expressing human R408W PAH; 24 hrs compound incubation; 13C-Tyrosine by LC-MS; average where tested multiple times; read-out: AC50.
T1 construct: expressed in transfected cells
T1 sequence (P00439 1-452 R408W): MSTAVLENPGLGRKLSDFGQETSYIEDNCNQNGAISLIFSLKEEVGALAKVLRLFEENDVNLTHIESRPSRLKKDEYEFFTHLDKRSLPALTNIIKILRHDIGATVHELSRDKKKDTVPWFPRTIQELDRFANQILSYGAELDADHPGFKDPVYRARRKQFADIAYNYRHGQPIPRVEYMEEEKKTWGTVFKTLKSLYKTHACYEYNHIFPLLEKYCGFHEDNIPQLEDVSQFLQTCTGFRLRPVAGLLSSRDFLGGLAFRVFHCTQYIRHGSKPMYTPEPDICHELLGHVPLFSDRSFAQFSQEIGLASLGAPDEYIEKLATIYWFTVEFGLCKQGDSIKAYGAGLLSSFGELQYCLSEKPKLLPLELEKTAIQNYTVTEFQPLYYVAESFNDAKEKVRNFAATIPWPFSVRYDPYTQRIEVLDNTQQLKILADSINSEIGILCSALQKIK
With `CC(C)(O)c1nc(C2CC2)c(C(=O)N2CCc3[nH]cnc3[C@H]2c2cc3ccccc3cn2)o1` [Example 378, (R)-(4-cyclopropyl-2-(2-hydroxypropan-2-yl)oxazol-5-yl)(4-(isoquinolin-3-yl)-6,7-dihydro-1H-imidazo[4,5-c]pyridin-5(4H)-yl)methanone] the AC50 was < 0.5 µM.
With `C[C@H]1CN(C(=O)c2cnc(-c3ccccn3)o2)[C@H](c2cc3ccccc3cn2)c2nc[nH]c21` [Example 381, ((4R,7S)-4-(isoquinolin-3-yl)-7-methyl-6,7-dihydro-1H-imidazo[4,5-c]pyridin-5(4H)-yl)(2-(pyridin-2-yl)oxazol-5-yl)methanone] the AC50 was 1 to 5 µM.
`C[C@H]1CN(C(=O)c2cnc(-c3ccccn3)o2)[C@@H](c2cc3ccccc3cn2)c2nc[nH]c21` [Example 382, ((4S,7S)-4-(isoquinolin-3-yl)-7-methyl-6,7-dihydro-1H-imidazo[4,5-c]pyridin-5(4H)-yl)(2-(pyridin-2-yl)oxazol-5-yl)methanone] was tested, and the AC50 was > 5 µM.
For `C[C@@H]1CN(C(=O)c2cnc(-c3ccccn3)o2)[C@H](c2cc3ccccc3cn2)c2nc[nH]c21` [Example 384, ((4R,7R)-4-(isoquinolin-3-yl)-7-methyl-6,7-dihydro-1H-imidazo[4,5-c]pyridin-5(4H)-yl)(2-(pyridin-2-yl)oxazol-5-yl)methanone], the AC50 was 1 to 5 µM.
`Cc1nc(C(C)(C)O)oc1C(=O)N1C[C@H](C)c2[nH]cnc2[C@H]1c1cc2ccccc2cn1` [Example 389, (2-(2-hydroxypropan-2-yl)-4-methyloxazol-5-yl)((4R,7S)-4-(isoquinolin-3-yl)-7-methyl-6,7-dihydro-1H-imidazo[4,5-c]pyridin-5(4H)-yl)methanone] was tested, and the AC50 was < 0.5 µM.
With `Cc1nc(C(C)(C)O)oc1C(=O)N1C[C@H](C)c2[nH]cnc2[C@@H]1c1cc2ccccc2cn1` [Example 390, (2-(2-hydroxypropan-2-yl)-4-methyloxazol-5-yl)((4S,7S)-4-(isoquinolin-3-yl)-7-methyl-6,7-dihydro-1H-imidazo[4,5-c]pyridin-5(4H)-yl)methanone] the AC50 was > 5 µM.
Work on `Cc1nc(C(C)(C)O)oc1C(=O)N1C[C@@H](C)c2[nH]cnc2[C@H]1c1cc2ccccc2cn1` [Example 392, (2-(2-hydroxypropan-2-yl)-4-methyloxazol-5-yl)((4R,7R)-4-(isoquinolin-3-yl)-7-methyl-6,7-dihydro-1H-imidazo[4,5-c]pyridin-5(4H)-yl)methanone] yielded an AC50 of 0.5 to 1 µM.
In the case of `COCc1ncc(C(=O)N2CCc3[nH]cnc3[C@H]2c2cc3ccccc3cn2)s1` [Example 393, (R)-(4-(isoquinolin-3-yl)-6,7-dihydro-1H-imidazo[4,5-c]pyridin-5(4H)-yl)(2-(methoxymethyl)thiazol-5-yl)methanone], the AC50 is reported as 0.5 to 1 µM.
`COCc1ncc(C(=O)N2CCc3[nH]cnc3[C@H]2c2cc3ccccc3cn2)o1` [Example 394, (R)-(4-(isoquinolin-3-yl)-6,7-dihydro-1H-imidazo[4,5-c]pyridin-5(4H)-yl)(2-(methoxymethyl)oxazol-5-yl)methanone] showed an AC50 of 0.5 to 1 µM.
Compound `C[C@H]1CN(C(=O)c2cnc(C(C)(C)O)o2)[C@H](c2cc3ccccc3cn2)c2nc[nH]c21` [Example 395, (2-(2-hydroxypropan-2-yl)oxazol-5-yl)((4R,7S)-4-(isoquinolin-3-yl)-7-methyl-6,7-dihydro-1H-imidazo[4,5-c]pyridin-5(4H)-yl)methanone] has an AC50 of 0.5 to 1 µM.
`C[C@H]1CN(C(=O)c2cnc(C(C)(C)O)o2)[C@@H](c2cc3ccccc3cn2)c2nc[nH]c21` [Example 396, (2-(2-hydroxypropan-2-yl)oxazol-5-yl)((4S,7S)-4-(isoquinolin-3-yl)-7-methyl-6,7-dihydro-1H-imidazo[4,5-c]pyridin-5(4H)-yl)methanone] was tested, and the AC50 was 1 to 5 µM.
Compound `C[C@@H]1CN(C(=O)c2cnc(C(C)(C)O)o2)[C@H](c2cc3ccccc3cn2)c2nc[nH]c21` [Example 398, (2-(2-hydroxypropan-2-yl)oxazol-5-yl)((4R,7R)-4-(isoquinolin-3-yl)-7-methyl-6,7-dihydro-1H-imidazo[4,5-c]pyridin-5(4H)-yl)methanone] has an AC50 of 1 to 5 µM.
For `C[C@H]1CN(C(=O)c2oc(C(C)(C)O)nc2C2CC2)[C@H](c2cc3ccccc3cn2)c2nc[nH]c21` [Example 399, (4-cyclopropyl-2-(2-hydroxypropan-2-yl)oxazol-5-yl)((4R,7S)-4-(isoquinolin-3-yl)-7-methyl-6,7-dihydro-1H-imidazo[4,5-c]pyridin-5(4H)-yl)methanone], the AC50 was < 0.5 µM.
`C[C@H]1CN(C(=O)c2oc(C(C)(C)O)nc2C2CC2)[C@@H](c2cc3ccccc3cn2)c2nc[nH]c21` [Example 400, (4-cyclopropyl-2-(2-hydroxypropan-2-yl)oxazol-5-yl)((4S,7S)-4-(isoquinolin-3-yl)-7-methyl-6,7-dihydro-1H-imidazo[4,5-c]pyridin-5(4H)-yl)methanone] showed an AC50 of 1 to 5 µM.
For `C[C@@H]1CN(C(=O)c2oc(C(C)(C)O)nc2C2CC2)[C@@H](c2cc3ccccc3cn2)c2nc[nH]c21` [Example 401, (4-cyclopropyl-2-(2-hydroxypropan-2-yl)oxazol-5-yl)((4S,7R)-4-(isoquinolin-3-yl)-7-methyl-6,7-dihydro-1H-imidazo[4,5-c]pyridin-5(4H)-yl)methanone], the AC50 was 1 to 5 µM.
In the case of `C[C@@H]1CN(C(=O)c2oc(C(C)(C)O)nc2C2CC2)[C@H](c2cc3ccccc3cn2)c2nc[nH]c21` [Example 402, (4-cyclopropyl-2-(2-hydroxypropan-2-yl)oxazol-5-yl)((4R,7R)-4-(isoquinolin-3-yl)-7-methyl-6,7-dihydro-1H-imidazo[4,5-c]pyridin-5(4H)-yl)methanone], the AC50 is reported as < 0.5 µM.
`Cc1nc(-c2ccccn2)oc1C(=O)N1C[C@H](C)c2[nH]cnc2[C@H]1c1cc2ccccc2cn1` [Example 403, ((4R,7S)-4-(isoquinolin-3-yl)-7-methyl-6,7-dihydro-1H-imidazo[4,5-c]pyridin-5(4H)-yl)(4-methyl-2-(pyridin-2-yl)oxazol-5-yl)methanone] was tested, and the AC50 was < 0.5 µM.
In the case of `Cc1nc(-c2ccccn2)oc1C(=O)N1C[C@H](C)c2[nH]cnc2[C@@H]1c1cc2ccccc2cn1` [Example 404, ((4S,7S)-4-(isoquinolin-3-yl)-7-methyl-6,7-dihydro-1H-imidazo[4,5-c]pyridin-5(4H)-yl)(4-methyl-2-(pyridin-2-yl)oxazol-5-yl)methanone], the AC50 is reported as > 5 µM.
With `Cc1nc(-c2ccccn2)oc1C(=O)N1C[C@@H](C)c2[nH]cnc2[C@@H]1c1cc2ccccc2cn1` [Example 405, [(4S,7R)-4-(3-isoquinolyl)-7-methyl-1,4,6,7-tetrahydroimidazo[4,5-c]pyridin-5-yl]-[4-methyl-2-(2-pyridyl)oxazol-5-yl]methanone] the AC50 was 1 to 5 µM.
With `Cc1nc(-c2ccccn2)oc1C(=O)N1C[C@@H](C)c2[nH]cnc2[C@H]1c1cc2ccccc2cn1` [Example 406, [(4R,7R)-4-(3-isoquinolyl)-7-methyl-1,4,6,7-tetrahydroimidazo[4,5-c]pyridin-5-yl]-[4-methyl-2-(2-pyridyl)oxazol-5-yl]methanone] the AC50 was < 0.5 µM.
In the case of `C[C@H]1CN(C(=O)c2oc(-c3ccccn3)nc2C2CC2)[C@H](c2cc3ccccc3cn2)c2nc[nH]c21` [Example 407, (4-cyclopropyl-2-(pyridin-2-yl)oxazol-5-yl)((4R,7S)-4-(isoquinolin-3-yl)-7-methyl-6,7-dihydro-1H-imidazo[4,5-c]pyridin-5(4H)-yl)methanone], the AC50 is reported as < 0.5 µM.
